Data on 33 compounds can be found in US12054478B2, “Compositions and methods for inhibiting phenyl triazole MLL1-WDR5 protein-protein interaction” (China Pharmaceutical University, priority 2018, dated 2024).

Data set [1] has as its system Molm-13 human acute myeloid leukemia cells. The data set can be described thus: Anti-proliferation on leukemia cells, Molm-13. The format is cell-based. The note with it: Homo sapiens; Molm-13 cells. The procedure: (§1) Anti-proliferation experiments were conducted with leukemia cells with some of the compounds in the present disclosure.
Data set [2] relates to K562 human chronic myeloid leukemia cells. Description: Anti-proliferation on leukemia cells, K562. It counts as cell-based. The method, then:
Anti-proliferation experiments were conducted with leukemia cells with some of the compounds in the present disclosure. Table 3 listed the results of evaluation of the anti-proliferation activities for some of the compounds from this present disclosure conducted with acute leukemia cells, wherein MV4-11 is human acute leukemia monocyte, Molm-13 is human acute myeloid leukemia cells, and K562 is human chronic myeloid leukemia cells.

The test system of data set [3] is MV4-11 human acute leukemia monocyte. Description: Anti-proliferation on leukemia cells, MV4-11. It counts as cell-based. The note with it: Homo sapiens, MV4-11; MV-411 cells. The method, then: as §1
The target in data set [4] is MLL1-WDR5 protein-protein interactions (Homo sapiens, UniProt P61964). The data set can be described thus: Inhibition of MLL1-WDR5 protein-protein interaction. The format is binding.
A short description of another data set: Solubility at pH 7.4. The note with it: aqueous medium at pH 7.4 (water solubility), aqueous buffer. It counts as physicochemical.
[5] abbreviates: Table 1, read-out: MLL1-WDR5 PPI inhibition activity.
The mark [6] stands for this setting: Table 2, compounds of this present disclosure.
Setting [7] is: Table 2, compounds of this present disclosure, read-out: MLL1-WDR5 PP1 inhibition activity.
Setting [8] is: Table 2, biphenyl comparison compounds.
Setting [9] is: Table 2, biphenyl comparison compounds (Eur. J. Med. Chem. 2016, 124, 480-489), read-out: MLL1-WDR5 PP1 inhibition activity.

Converted amounts (≈) assume the structure as drawn. Like-named read-outs stand apart in the source and are kept apart here.

For `CCOc1cn(-c2ccc(N3CCN(C)CC3)c(NC(=O)c3cc(N)c(F)c(C)c3Cl)c2F)nn1` [Example 20], the GI50 (usually the concentration giving 50% growth inhibition) in data set [1] stood at 10.1 ± 1.3 µM; in data set [2], 10.5 ± 2 µM; in data set [3], 8.6 ± 0.6 µM.
`Cc1c(F)c(O)cc(C(=O)Nc2c(N3CCN(C)CC3)ccc(-n3cc(NC(=O)CCN)nn3)c2C)c1Cl` [Example 23]: the GI50 turned out to be 17.9 ± 1.6 µM in data set [1] and 27.7 ± 0.3 µM in data set [2]. The IC50 in data set [4] (setting [5]) is less than 50 nM.
Turning to `Cc1c(F)c(N)cc(C(=O)Nc2cc(-n3ccnn3)ccc2N2CCN(C)CC2)c1Cl` [drawing 12], the concentration in solution in the data set “Solubility at pH 7.4” (setting [6]) (solubility) came to 30 µg/mL (≈ 67.6 µM). In data set [4] (setting [7]), the IC50 was determined as 65.7 nM.
As to `Cc1c(F)c(N)cc(C(=O)Nc2cc(-n3cc(N)nn3)ccc2N2CCN(C)CC2)c1Cl` [drawing 14], the solubility (commonly how much of the substance goes into solution per volume) in the data set “Solubility at pH 7.4” (setting [6]) stood at 110 µg/mL (≈ 240 µM). Further, the IC50 in data set [4] (setting [7]) amounted to 90.3 nM.
Turning to `Cc1c(F)c(N)cc(C(=O)Nc2cc(-n3cc(C(=O)NCCN4CCOCC4)nn3)ccc2N2CCN(C)C(C)C2)c1Cl` (centres unmarked) [Example 25], the GI50 in data set [1] amounted to 8.5 ± 0.7 µM; in data set [2] it was 11.3 ± 0.7 µM; in data set [3], 10.9 ± 0.9 µM. Also, the IC50 in data set [4] (setting [5]) is less than 50 nM.
`Cc1c(F)c(N)cc(C(=O)Nc2cc(-n3cc(NC(=O)C4CCN(C)CC4)nn3)ccc2N2CCN(C)CC2)c1Cl` [Example 14]: the GI50 in data set [1] was found to be 11 ± 2 µM; in data set [2], 14.1 ± 1.3 µM; in data set [3], 9.5 ± 1 µM. The IC50 in data set [4] (setting [5]) was less than 10 nM.
For `Cc1c(F)c(N)cc(C(=O)Nc2cc(-n3cc(N)nn3)ccc2N2CCN(C)CC2)c1Cl` [Example 13, 5-amino-N-(5-(4-amino-1H-1,2,3-triazole-1-group)-2-(4-methylpiperazin-1-group)phenyl)-2-chloro-4-fluoro-3-Methylbenzamide] the same measures were 9.2 ± 1.4 µM, 10.5 ± 2 µM, 10.1 ± 1.3 µM and less than 80 nM.
In the data set “Solubility at pH 7.4” (setting [8]), `COC(=O)c1ccc(-c2ccc(N3CCN(C)CC3)c(NC(=O)c3cc(N)c(F)c(C)c3Cl)c2)cc1` [reference compound] returned a solubility of 1.9 µg/mL (≈ 3.72 µM).
Regarding `Cc1c(F)c(N)cc(C(=O)Nc2cc(-n3cc(C(=O)NC4CCOCC4)nn3)ccc2N2CCN(C)CC2)c1Cl` [Example 5, 1-(3-(5-Amino-2-chloro-4-fluoro-3-methylbenzoylamino)-4-(4-methylpiperazin-1-group)phenyl)-N-(tetrahydro-2H-pyran-4-yl)-1H-1,2,3-triazole-4-carboxamide], the 50% growth inhibitory concentration (GI50) in data set [2] is 27.5 ± 2.8 µM.
`Cc1c(F)c(N)cc(C(=O)Nc2cc(-n3cc(NC(=O)CCCN)nn3)ccc2N2CCN(C)CC2)c1Cl` [drawing 20] returned a solubility in “Solubility at pH 7.4” (setting [6]) of 1300 µg/mL (≈ 2400 µM). In addition, in data set [4] (setting [7]), the IC50 came to 6.7 nM.
For `Cc1c(F)c(N)cc(C(=O)Nc2cc(-n3cc(NC(=O)C4CCNCC4)nn3)ccc2N2CCN(C)CC2)c1Cl` [drawing 18] the same measures were 1240 µg/mL (≈ 2170 µM) and 12.3 nM.
Turning to `Cc1c(F)c(N)cc(C(=O)Nc2cc(-n3cc(NC(=O)CCO)nn3)ccc2N2CCN(C)CC2)c1Cl` [Example 17, 5-amino-2-chloro-4-fluoro-N-(5-(4-(3-Hydroxypropionylamino)-1H-1,2,3-triazol-1-group)-2-(4-methylpiperazin-1-group)phenyl)-3-methyl benzoylamino], the GI50 in data set [1] was found to be 7.3 ± 0.8 µM; in data set [2], 21.3 ± 2.4 µM; in data set [3] it was 10.4 ± 1.1 µM. In data set [4] (setting [5]), the IC50 is less than 50 nM.
In the data set “Solubility at pH 7.4” (setting [6]), `Cc1c(F)c(N)cc(C(=O)Nc2cc(-n3cc(C(=O)N4CCOCC4)nn3)ccc2N2CCN(C)CC2)c1Cl` [drawing 10] had a solubility of 200 µg/mL (≈ 359 µM).
With `Cc1c(F)c(N)cc(C(=O)Nc2cc(-n3cc(NC(=O)C4CCNCC4)nn3)ccc2N2CCN(C)CC2)c1Cl` [Example 15, N-(1-(3-(5-amino-2-chloro-4-fluoro-3-Methylbenzoylamino)-4-(4-methylpiperazingroup)phenyl)-1H-1,2,3-Triazopyridine-4-group) Piperidine-4-formamide], the GI50 in data set [1] was 18.5 ± 1.9 µM; in data set [2], 12.9 ± 0.2 µM; in data set [3], 14.3 ± 1.7 µM. Further, the IC50 in data set [4] (setting [5]) is less than 10 nM.
With `Cc1c(F)c(N)cc(C(=O)Nc2cc(-n3cc(NC(=O)OC(C)(C)C)nn3)ccc2N2CCN(C)CC2)c1Cl` [Example 12], growth in data set [3] was halved (GI50) at 23.2 ± 3.2 µM. In data set [4] (setting [5]), the IC50 was less than 80 nM.
For the compound `Cc1c(F)c(N)cc(C(=O)Nc2cc(-c3ccc(NC(=O)CCCN)cc3)ccc2N2CCN(C)CC2)c1Cl` [drawing 21, reference compound], in the data set “Solubility at pH 7.4” (setting [8]), the concentration in solution (solubility) was 110 µg/mL (≈ 199 µM).
Still for that read-out and setting: the result for `Cc1c(F)c(N)cc(C(=O)Nc2cc(-c3ccc(NC(=O)C4CCN(C)CC4)cc3)ccc2N2CCN(C)CC2)c1Cl` [reference compound] reads 54 µg/mL (≈ 91 µM).
Regarding `Cc1c(F)c(N)cc(C(=O)Nc2cc(-n3cc(C(=O)NCCN4CCOCC4)nn3)ccc2N2CCCN(C)CC2)c1Cl` [Example 24, 1-(3-(5-amino-2-chloro-4-fluoro-3-Methylbenzoylamino)-4-(4-methyl-1,4-Diazepane-1-group)phenyl)-N-(2-Morpholineethyl)-1H-1,2,3-triazol-4-formamide], the GI50 in data set [1] turned out to be 12.9 ± 0.9 µM; in data set [2], 13.5 ± 2.2 µM; in data set [3], 11.3 ± 0.7 µM. Moreover, the IC50 in data set [4] (setting [5]) is less than 50 nM.
Take `Cc1c(F)c(N)cc(C(=O)Nc2cc(-n3cc(C(=O)NCCN4CCOCC4)nn3)ccc2N2CCN(C)CC2)c1Cl` [Example 9]: halving of growth in data set [2] (GI50) required 35.8 ± 2.7 µM.
Regarding `Cc1c(F)c(N)cc(C(=O)Nc2cc(-c3ccc(C(=O)N4CCOCC4)cc3)ccc2N2CCN(C)CC2)c1Cl` [reference compound], the solubility in “Solubility at pH 7.4” (setting [8]) was 27 µg/mL (≈ 47.7 µM).
With `Cc1c(F)c(N)cc(C(=O)Nc2cc(-n3cc(CCN(C)C)nn3)ccc2N2CCN(C)CC2)c1Cl` [Example 19, 5-amino-2-chloro-N-(5-(4-(2-(Dimethylamino)ethyl)-1H-1,2,3-triazol-1-group)-2-(4-methylpiperazin-1-groupgroup)phenyl)-4-fluoro-3-Methyl benzoyl], the GI50 is 16.8 ± 2 µM in data set [1], 13.5 ± 1.2 µM in data set [2] and 13.7 ± 1.4 µM in data set [3]. Further, the IC50 in data set [4] (setting [5]) is less than 50 nM.
On to `Cc1c(F)c(N)cc(C(=O)Nc2cc(-n3cc(C(=O)N(C)C)nn3)ccc2N2CCN(C)CC2)c1Cl` [Example 3, 1-(3-(5-Amino-2-chloro-4-fluoro-3-methylbenzoylamino)-4-(4-methylpiperazin-1-group)phenyl)-N, N-dimethyl-1H-1,2,3 triazole-4-carboxamide], for which the concentration for 50% growth inhibition (GI50) was 22.8 ± 5.5 µM in data set [1], more than 100 µM in data set [2] and 44.6 ± 1.3 µM in data set [3].
Turning to `Cc1c(F)c(N)cc(C(=O)Nc2cc(-c3ccc(N)cc3)ccc2N2CCN(C)CC2)c1Cl` [drawing 15, reference compound], in the data set “Solubility at pH 7.4” (setting [8]), the concentration in solution (solubility) was 9.5 µg/mL (≈ 20.3 µM). Also, the IC50 in data set [4] (setting [9]) was found to be 88.7 nM.
For `Cc1c(F)c(N)cc(C(=O)Nc2cc(-c3ccc(NC(=O)C4CCNCC4)cc3)ccc2N2CCN(C)CC2)c1Cl` [reference compound] the same measures were 125 µg/mL (≈ 216 µM) and 8.5 nM.
`Cc1c(F)c(N)cc(C(=O)Nc2cc(-n3cc(C(=O)N4CCN(C)CC4)nn3)ccc2N2CCN(C)CC2)c1Cl` [Example 8, 5-amino-2-chloro-4-fluoro-3-ethyl-N-(2-(4-methylpiperazin-1-group)-5-(4-(methylpiperazin-1-Carbonyl)-1H-1,-1H-1,2,3-triazole-1-group) Phenyl)-carboxamide] displayed a GI50 in data set [2] of 34.1 ± 1.2 µM.
`Cc1c(F)c(N)cc(C(=O)Nc2cc(-n3cc(C(=O)N(C)C)nn3)ccc2N2CCN(C)CC2)c1Cl` [drawing 8] displayed a solubility in the data set “Solubility at pH 7.4” (setting [6]) of 170 µg/mL (≈ 330 µM).
`Cc1c(F)c(O)cc(C(=O)Nc2c(N3CCN(C)CC3)ccc(-n3cc(NCC(N)=O)nn3)c2F)c1Cl` [Example 21, N-(3-(4-((2-amino-2-Oxoethyl)amino)-1H-1,2,3-triazol-1-group)-2-fluoro-6-(4-methylpiperazin-1-group)phenyl)-2-chloro-4-fluoro-5-hydroxyl-3-Methyl benzoyl]: the values for the GI50 in data set [1], in data set [2] and in data set [3] were 7.7 ± 0.9 µM, 10.5 ± 0.8 µM and 12.7 ± 0.8 µM, respectively. The IC50 in data set [4] (setting [5]) is less than 80 nM.
For `Cc1c(F)c(N)cc(C(=O)Nc2cc(-n3cc(C(=O)NCCCN)nn3)ccc2N2CCN(C)CC2)c1Cl` [Example 10] the same measures were 13.5 ± 1.2 µM, 13.5 ± 1.2 µM, 13.5 ± 1.2 µM and less than 10 nM.
The compound `Cc1c(F)c(N)cc(C(=O)Nc2cc(-n3cc(NC(=O)C4CCN(C)CC4)nn3)ccc2N2CCN(C)CC2)c1Cl` [drawing 16] yielded a solubility in the data set “Solubility at pH 7.4” (setting [6]) of 630 µg/mL (≈ 1080 µM). For the same compound, the IC50 in data set [4] (setting [7]) stood at 6 nM.
For the compound `COC(=O)c1cn(-c2ccc(N3CCN(C)CC3)c(NC(=O)c3cc(N)c(F)c(C)c3Cl)c2)nn1` [drawing 6], in the data set “Solubility at pH 7.4” (setting [6]), the solubility came to 20 µg/mL (≈ 39.8 µM).
Consider `Cc1c(F)c(N)cc(C(=O)Nc2cc(-n3ccnn3)ccc2N2CCN(C)CC2)c1Cl` [Example 11, 5-amino-2-chloro-4-fluoro-3-methyl-N-(2-(4-methylpiperazin-1-group)-5-(1H-1,2,3-triazole-1-group)phenyl) benzamide], for which the GI50 in data set [1], in data set [2] and in data set [3] was 13.5 ± 1.5 µM in each case.
With `Cc1c(F)c(N)cc(C(=O)Nc2cc(-c3ccc(C(=O)N(C)C)cc3)ccc2N2CCN(C)CC2)c1Cl` [reference compound], the solubility in “Solubility at pH 7.4” (setting [8]) is 21 µg/mL (≈ 40.1 µM).
Turning to `Cc1c(F)c(N)cc(C(=O)Nc2cc(-c3ccccc3)ccc2N2CCN(C)CC2)c1Cl` [reference compound], the solubility in “Solubility at pH 7.4” (setting [8]) stood at 3.1 µg/mL (≈ 6.84 µM). In addition, in data set [4] (setting [9]), the IC50 amounted to 47.9 nM.
